Laboratory results reported in patent US20240058315A1, “Pyridine and Pyrazine derivative for the Treatment of CF, COPD, and Bronchiectasis” (NOVARTIS AG, priority 2019, published 2024).

Key:
CYP2B6 = test: Induction of CYP2B6; format: in vitro ADME
OATP1B1 = OATP1B1 (Homo sapiens (Human), UniProt Q9Y6L6); test: in vitro inhibition of OATP1B1; format: in vitro ADME
COPD patients = test: Phase II study of Compound A in COPD patients: fibrinogen levels in blood; format: in vivo, human; parameters: fibrinogen change from baseline, mean / fibrinogen change from baseline, minimum / fibrinogen change from baseline, median / fibrinogen change from baseline, maximum: unit not given here; details: for fibrinogen change from baseline, maximum / fibrinogen change from baseline, mean / fibrinogen change from baseline, median / fibrinogen change from baseline, minimum: value in brackets
Method: (§1) Patients were randomized and stratified by smoking status (former vs current smokers). The double-blind placebo-controlled treatment period was 28 days (Day 1 to Day 28) and included visits on Days 1, 14 and 28. Eligible patients were randomized in a 2:1 ratio to receive 300 mg b.i.d. of Compound A or matching placebo for 28 consecutive days. Of note, the first 4 patients enrolled randomized in this study received 450 mg b.i.d. of Compound A or placebo, prior to an amendment reducing the dose and thereafter the dose was reduced to 300 mg b.i.d. of Compound A. The single-blind placebo-controlled follow-up period was 28 days. The follow-up period included a visit on Day 29 for key primary and secondary objective efficacy assessments, weekly follow-up contact via telephone, and an End-of-Study (EOS) visit on Day 56.
Blood samples were collected from patients for the analysis of fibrinogen.

CFTR = test: COPD PoC study (study 2): sweat chloride; format: in vivo, human; details: Day 29, 300 mg bid 28 days, 90% CI −11.6, 1.25, p-value=0.091
Method: as §1

BCRP = BCRP (Homo sapiens (Human), UniProt Q9UNQ0); test: in vitro inhibition of BCRP; format: in vitro ADME
[1] = system: Pseudomonas aeruginosa Biotype 2 - dry; test: Phase II study in COPD patients: sputum microbiology, Pseudomonas aeruginosa Biotype 2 - dry; format: in vivo
Method: as §1
Spontaneous sputum was collected from patients and used to quantify colony forming units (CFUs) as a potential efficacy marker. The collected sputum samples were cultured for the following specific bacteria: Haemophilus parainfluenza, Haemophilus influenza, Pseudomonas aeruginosa, Moraxella, and Streptococcus pneumonia. In the event of bacterial growth for one or more of the above five pathogens, then the test result was reported, including the quantitative growth. In order to be included in the sputum analysis, a patient must have provided a sufficient sputum sample at baseline and at least one other visit (Day 14, Day 29 or EOS).
A decrease in airway bacterial colonization as detected in the sputum is considered improvement. In Table 4, the frequency (n, %) of patients was reported by treatment with Compound A and type of bacteria. Within each treatment group, the percentage was calculated as number of patients who were colonized with bacteria divided with total number of patients who produced a sputum sample at that time point.

UGT1A1 = UGT1A1 (Homo sapiens (Human), UniProt P22309); test: in vitro inhibition of UGT1A1; format: in vitro ADME
[2] = Pharmacokinetics of Compound A (half-life, trough/AUC relation); format: in vivo
[3] = BAS (baseline) visit, 300 mg bid group
[4] = SCR (screening) visit, 300 mg bid group

Chain of BCRP (Q9UNQ0 whole entry): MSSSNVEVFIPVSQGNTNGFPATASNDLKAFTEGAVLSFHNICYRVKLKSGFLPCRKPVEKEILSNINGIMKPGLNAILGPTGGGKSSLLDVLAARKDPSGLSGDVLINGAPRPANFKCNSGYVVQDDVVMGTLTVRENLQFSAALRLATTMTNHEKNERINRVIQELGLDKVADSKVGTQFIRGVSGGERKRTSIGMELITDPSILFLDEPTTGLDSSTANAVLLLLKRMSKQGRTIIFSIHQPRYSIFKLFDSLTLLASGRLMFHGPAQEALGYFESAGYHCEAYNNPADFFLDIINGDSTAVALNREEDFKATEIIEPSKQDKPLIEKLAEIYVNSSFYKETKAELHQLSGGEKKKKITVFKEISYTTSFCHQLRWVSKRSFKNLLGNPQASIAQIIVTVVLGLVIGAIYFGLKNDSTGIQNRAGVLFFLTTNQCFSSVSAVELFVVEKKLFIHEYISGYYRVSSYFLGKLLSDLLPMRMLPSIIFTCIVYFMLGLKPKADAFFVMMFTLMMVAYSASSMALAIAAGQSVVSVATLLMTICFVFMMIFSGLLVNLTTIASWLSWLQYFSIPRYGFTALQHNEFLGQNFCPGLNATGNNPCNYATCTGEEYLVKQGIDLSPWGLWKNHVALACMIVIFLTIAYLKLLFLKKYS
Chain of UGT1A1 (P22309 26-533): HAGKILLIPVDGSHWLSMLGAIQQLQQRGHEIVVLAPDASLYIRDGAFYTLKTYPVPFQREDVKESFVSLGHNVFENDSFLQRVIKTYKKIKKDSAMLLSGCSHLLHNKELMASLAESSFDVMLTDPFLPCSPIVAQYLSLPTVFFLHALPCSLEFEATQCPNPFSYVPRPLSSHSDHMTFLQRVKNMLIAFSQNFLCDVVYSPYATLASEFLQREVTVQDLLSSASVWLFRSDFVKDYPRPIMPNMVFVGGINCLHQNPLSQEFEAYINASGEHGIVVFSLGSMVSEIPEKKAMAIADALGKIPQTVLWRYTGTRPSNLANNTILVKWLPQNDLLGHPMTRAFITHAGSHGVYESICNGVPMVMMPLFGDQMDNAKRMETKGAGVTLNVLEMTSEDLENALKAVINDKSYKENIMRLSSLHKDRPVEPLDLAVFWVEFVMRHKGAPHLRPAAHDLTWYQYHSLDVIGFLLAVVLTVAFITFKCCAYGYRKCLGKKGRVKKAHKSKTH
Chain of OATP1B1 (Q9Y6L6 whole entry): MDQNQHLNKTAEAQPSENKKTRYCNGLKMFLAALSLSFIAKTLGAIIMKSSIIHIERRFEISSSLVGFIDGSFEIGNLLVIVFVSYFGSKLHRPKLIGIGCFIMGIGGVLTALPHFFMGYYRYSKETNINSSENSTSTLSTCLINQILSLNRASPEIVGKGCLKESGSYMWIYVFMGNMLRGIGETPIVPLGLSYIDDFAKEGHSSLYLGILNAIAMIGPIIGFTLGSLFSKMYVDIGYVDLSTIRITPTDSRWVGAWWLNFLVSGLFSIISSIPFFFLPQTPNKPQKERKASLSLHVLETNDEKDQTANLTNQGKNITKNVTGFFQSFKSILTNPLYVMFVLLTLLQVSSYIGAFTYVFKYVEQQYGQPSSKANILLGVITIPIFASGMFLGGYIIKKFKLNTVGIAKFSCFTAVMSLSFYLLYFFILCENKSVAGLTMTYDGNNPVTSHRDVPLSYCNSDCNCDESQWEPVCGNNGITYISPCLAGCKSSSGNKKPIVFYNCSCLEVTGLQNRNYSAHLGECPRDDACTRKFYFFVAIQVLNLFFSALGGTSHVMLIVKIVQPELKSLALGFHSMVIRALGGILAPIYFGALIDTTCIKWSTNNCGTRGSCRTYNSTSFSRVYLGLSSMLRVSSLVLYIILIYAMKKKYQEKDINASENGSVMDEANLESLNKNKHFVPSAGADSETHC

What does the source list for `COc1nc(C(=O)NC[C@](C)(O)C(F)(F)F)c(N)cc1C(F)(F)F` (single isomer, unassigned) [Example 5]?
effect on co-medications mainly metabolized by CYP2B6 (CYP2B6): induce; inhibition of OATP1B1 (OATP1B1): Weak in vitro inhibition; fibrinogen level, maximum (COPD patients; [3]): 4.9 g/L; fibrinogen level, mean (COPD patients; [3]): 3.28 g/L; fibrinogen level, median (COPD patients; [3]): 3.16 g/L; fibrinogen level, minimum (COPD patients; [3]): 2 g/L; fibrinogen level, maximum (COPD patients; D14, 300 mg bid): 4.4 g/L; fibrinogen level, mean (COPD patients; D14, 300 mg bid): 3.1 g/L; fibrinogen level, median (COPD patients; D14, 300 mg bid): 3.03 g/L; fibrinogen level, minimum (COPD patients; D14, 300 mg bid): 1.6 g/L; fibrinogen change from baseline, maximum (COPD patients; D14, 300 mg bid): 1.7; fibrinogen change from baseline, mean (COPD patients; D14, 300 mg bid): −0.18; fibrinogen change from baseline, median (COPD patients; D14, 300 mg bid): −0.20; fibrinogen change from baseline, minimum (COPD patients; D14, 300 mg bid): −1.7; fibrinogen level, maximum (COPD patients; D29, 300 mg bid): 4.4 g/L; fibrinogen level, mean (COPD patients; D29, 300 mg bid): 3.02 g/L; fibrinogen level, median (COPD patients; D29, 300 mg bid): 2.98 g/L; fibrinogen level, minimum (COPD patients; D29, 300 mg bid): 1.6 g/L; fibrinogen change from baseline, maximum (COPD patients; D29, 300 mg bid): 1.3; fibrinogen change from baseline, mean (COPD patients; D29, 300 mg bid): −0.24; fibrinogen change from baseline, median (COPD patients; D29, 300 mg bid): −0.17; fibrinogen change from baseline, minimum (COPD patients; D29, 300 mg bid): −1.8; mean change from baseline over time for fibrinogen (FIG. 1) (COPD patients; Day 14 and 29 during treatment period): decrease of fibrinogen levels; estimated difference (Compound A to placebo) in mean change from baseline fibrinogen (COPD patients; Day 29, 300 mg bid for 28 days, 90% CI −0.65, −0.14, p-value=0.006): -0.40 g/L; Fibrinogen mean improvement over placebo (COPD patients; Day 29, p-value=0.006): 40 mg/dL; fibrinogen level, mean (COPD patients; EOS (Day 56, 28 days after last dose), 300 mg bid): 3.24 g/L; fibrinogen level, maximum (COPD patients; EOS, 300 mg bid): 6.6 g/L; fibrinogen level, median (COPD patients; EOS, 300 mg bid): 3.16 g/L; fibrinogen level, minimum (COPD patients; EOS, 300 mg bid): 2 g/L; fibrinogen change from baseline, maximum (COPD patients; EOS, 300 mg bid): 3.0; fibrinogen change from baseline, mean (COPD patients; EOS, 300 mg bid): −0.03; fibrinogen change from baseline, median (COPD patients; EOS, 300 mg bid): −0.11; fibrinogen change from baseline, minimum (COPD patients; EOS, 300 mg bid): −1.7; fibrinogen level, maximum (COPD patients; [4]): 4.9 g/L; fibrinogen level, mean (COPD patients; [4]): 3.03 g/L; fibrinogen level, median (COPD patients; [4]): 3 g/L; fibrinogen level, minimum (COPD patients; [4]): 1.1 g/L; estimated difference (Compound A - placebo) in mean change from baseline sweat chloride (CFTR): -5.19 mmol/L; inhibition of BCRP (BCRP): Weak in vitro inhibition; patients colonized, n (%) ([1]; Baseline): 2 (4.4) n (%); patients colonized, n (%) ([1]; D14): 4 (9.3) n (%); patients colonized, n (%) ([1]; D29): 2 (4.8) n (%); patients colonized, n (%) ([1]; EOS): 1 (2.4) n (%); inhibition of UGT1A1 (UGT1A1): Weak in vitro inhibition; half-life ([2]; in vivo): 10 to 16 h; trough concentration (Cmin,ss) corresponding to AUC0-24 h,ss of 91,700 ng*h/ml ([2]; regression of Cmin,ss against AUC0-24 h,ss): 3000 ng/mL
